Source: US9868715B2 (THE BOARD OF REGENTS OF THE UNIVERSITY OF TEXAS SYSTEMS, priority 2014, dated 2018)

Experiments:
[1] = tested on: transformed PSC (human pancreatic stellate cells); assay: PSC apoptosis, Cell Death Detection ELISA PLUS assay; type: cell-based; settings: 14 h; for EC50: mean±SEM of at least three experiments
Procedure: These two representative analogues were also investigated to determine whether the growth inhibition induced by compounds 23 and 24 in PSC was attributed to apoptosis. Apoptosis was determined using the Cell Death Detection ELISA^PLUS assay. This sandwich-enzyme-immunoassay involved antibodies binding to cytoplasmic nucleosomes, which were specific to the process of apoptosis rather than necrosis. […] Next, the dose-response curve was generated (FIG. 3B). The EC50 represented the concentration at which the compound yielded half of the maximal amount of cell death. […] The capacity of the compounds to induce cell death in activated PSC would most likely translate into reduced fibrosis in CP. […] Under an IRB-approved tissue protocol, discarded human resected pancreatic tissue (500 mm^3) was attained fresh from the operating room at the University of Texas Medical Branch. The tissue was minced and plated on a collagen-coated flask (15 μg/mL, Invitrogen) with DMEM (VWR; Radnor, Pa.) supplemented with penicillin 200 U/mL, streptomycin 200 μg/mL, amphotericin B 0.25 μg/mL and gentimicin 50 μg/mL (Invitrogen, Carlsbad Calif.), 10% fetal bovine serum (Lonza, Walkersville, Md.), 1% insulin-transferrin, selenium-ethanolamine (Gibco, Grand Island, N.Y.), and 1% non-essential amino acids (Sigma-Aldrich, St. Louis, Mo.). The human PSC were isolated by the outgrowth method.^41-43 The purity of PSC culture was confirmed by immunohistochemical staining for vimentin, α-smooth muscle actin, glial fibrillar acidic protein, or Oil red O staining. Primary PSC were transformed and immortalized for use in experiments using lentiviral vectors containing SV40 Large T antigen and human telomerase (plasmid #12245 and 12246; Addgene, Cambridge, Mass.). Cultures were maintained in DMEM with 10% FBS, at 37° C. in a humidified […] atmosphere. Cell death assay. Transformed PSC (8×10^3) were plated in 96-well plates in triplicate. […] The Cell Death Detection ELISA^PLUS assay (Roche Applied Science, Indianapolis, Ind.) was used and protocol followed (Version 11.0). Absorbance was measured at 405 nm, using the EL×800 Automated Microplate Reader (Bio-TEK Instruments, Inc., Winooski, Vt.). Statistical analysis. Dose-response curves were generated by plotting fluorescence or absorbance versus log (compound concentration). A best-fit curve was created using nonlinear regression, and the IC50 or EC50 determined from the graph (GraphPad Prism 5; GraphPad Software Inc., La Jolla, Calif.). To analyze continuos variables, unpaired student t-tests and one-way ANOVA with Tukey-Kramer multiple comparisons post-test (GraphPad Prism 5). Significance was set at p<0.05.

[2] = tested on: transformed PSC (human pancreatic stellate cells); assay: PSC proliferation, AlamarBlue Cell Viability Assay; type: cell-based; settings: for inhibition at 5 µM / inhibition at 10 µM / inhibition at 20 µM: Homo sapiens, mean of at least three independent experiments, NE = No effect, read-out: Inhibitory Effect (%) on PSC proliferation; for IC50: human PSC, 24 h, mean±SEM of at least three experiments, read-out: IC50, inhibition of PSC proliferation; for IC50 / Antiproliferative effect on PSC, result in words: AlamarBlue; for Antiproliferative effect on PSC, result in words: transformed PSC
Procedure: The calculated lipophilicity (cLogP) and topological polar surface area (tPSA) values of synthesized analogues are listed in Table 1. […] AlamarBlue is a non-toxic reagent that is converted to a highly fluorescent end product by viable cells.
Under an IRB-approved tissue protocol, discarded human resected pancreatic tissue (500 mm^3) was attained fresh from the operating room at the University of Texas Medical Branch. The tissue was minced and plated on a collagen-coated flask (15 μg/mL, Invitrogen) with DMEM (VWR; Radnor, Pa.) supplemented with penicillin 200 U/mL, streptomycin 200 μg/mL, amphotericin B 0.25 μg/mL and gentimicin 50 μg/mL (Invitrogen, Carlsbad Calif.), 10% fetal bovine serum (Lonza, Walkersville, Md.), 1% insulin-transferrin, selenium-ethanolamine (Gibco, Grand Island, N.Y.), and 1% non-essential amino acids (Sigma-Aldrich, St. Louis, Mo.). The human PSC were isolated by the outgrowth method.^41-43 The purity of PSC culture was confirmed by immunohistochemical staining for vimentin, α-smooth muscle actin, glial fibrillar acidic protein, or Oil red O staining. Primary PSC were transformed and immortalized for use in experiments using lentiviral vectors containing SV40 Large T antigen and human telomerase (plasmid #12245 and 12246; Addgene, Cambridge, Mass.). Cultures were maintained in DMEM with 10% FBS, at 37° C. in a humidified 95% O2/5% CO2 atmosphere.
Cell proliferation assay. Transformed PSC (3×10^3) were plated in 96-well plates, in sextuplicate. […] AlamarBlue reagent (10% sample volume, DAL1025) was added to each well per Invitrogen's protocol. Fluorescence was recorded using excitation/emission wavelengths of 544/590 nm and the SpectraMax M2 Microplate Reader (Molecular Devices, Sunnyvale Calif.).
Statistical analysis. Dose-response curves were generated by plotting fluorescence or absorbance versus log (compound concentration). A best-fit curve was created using nonlinear regression, and the IC50 or EC50 determined from the graph (GraphPad Prism 5; GraphPad Software Inc., La Jolla, Calif.). To analyze continuos variables, unpaired student t-tests and one-way ANOVA with Tukey-Kramer multiple comparisons post-test (GraphPad Prism 5). Significance was set at p<0.05.

[3] = Aqueous solubility by HPLC analysis method; type: physicochemical; settings: in the form of HCl salt

| SMILES | EC50 [1] | inhibition at 5 µM [2] | inhibition at 10 µM [2] | inhibition at 20 µM [2] | IC50 [2] | Antiproliferative effect on PSC, result in words [2] | Concentrations inducing stellate cell toxicity [1] | Aqueous solubility compared with apigenin, result in words [3] | Aqueous solubility, saturated concentration [3] |
| --- | --- | --- | --- | --- | --- | --- | --- | --- | --- |
| COc1cc(OC)c2c(=O)cc(-c3ccc(OCC4CO4)cc3)oc2c1 (centres unmarked) [Compound 23, 5,7-Dimethoxy-2-(4-oxiranylmethoxyphenyl)-chromen-4-one] | 9.6 ± 1.8 µM | 69% | 89% | 93% | 2.5 ± 0.6 µM | highly potent inhibitor suppressing PSC proliferation | – | – | – |
| O=c1cc(-c2ccc(O)cc2)oc2cc(O)cc(O)c12 [Apigenin, 4′,5,7-trihydroxyflavone, reference compound] | 24.5 ± 2.5 µM | 11% | 34% | 64% | 18.6 ± 1.6 µM | – | – | – | – |
| COc1cc(OC)c2c(=O)cc(-c3ccc(OCC(O)CN4CCCCC4)cc3)oc2c1 (centres unmarked) [Compound 24, 2-(4-(2-Hydroxy-3-piperidin-1-yl-propoxy)phenyl)-5,7-dimethoxy-chromen-4-one] | 35.2 ± 5.5 µM | 34% | 65% | 95% | 8 ± 1.8 µM | potent antiproliferative effects | greater than 25 μM | significantly improved solubility | 84.1 mg/mL |
